Assay results published in US11174251B2, “Compositions and methods for inhibition of the JAK pathway” (Rigel Pharmaceuticals, Inc., priority 2010, dated 2021).
Where a name gives a salt, the structure may show the parent alone.

Target: T1, JAK3 (Homo sapiens, UniProt P52333)
T1 construct: The Ramos B-cell line was acquired from ATCC (ATCC Catalog No. CRL-1596); host or cells: Ramos B-cell line (human)
T1 sequence (P52333 1-1124): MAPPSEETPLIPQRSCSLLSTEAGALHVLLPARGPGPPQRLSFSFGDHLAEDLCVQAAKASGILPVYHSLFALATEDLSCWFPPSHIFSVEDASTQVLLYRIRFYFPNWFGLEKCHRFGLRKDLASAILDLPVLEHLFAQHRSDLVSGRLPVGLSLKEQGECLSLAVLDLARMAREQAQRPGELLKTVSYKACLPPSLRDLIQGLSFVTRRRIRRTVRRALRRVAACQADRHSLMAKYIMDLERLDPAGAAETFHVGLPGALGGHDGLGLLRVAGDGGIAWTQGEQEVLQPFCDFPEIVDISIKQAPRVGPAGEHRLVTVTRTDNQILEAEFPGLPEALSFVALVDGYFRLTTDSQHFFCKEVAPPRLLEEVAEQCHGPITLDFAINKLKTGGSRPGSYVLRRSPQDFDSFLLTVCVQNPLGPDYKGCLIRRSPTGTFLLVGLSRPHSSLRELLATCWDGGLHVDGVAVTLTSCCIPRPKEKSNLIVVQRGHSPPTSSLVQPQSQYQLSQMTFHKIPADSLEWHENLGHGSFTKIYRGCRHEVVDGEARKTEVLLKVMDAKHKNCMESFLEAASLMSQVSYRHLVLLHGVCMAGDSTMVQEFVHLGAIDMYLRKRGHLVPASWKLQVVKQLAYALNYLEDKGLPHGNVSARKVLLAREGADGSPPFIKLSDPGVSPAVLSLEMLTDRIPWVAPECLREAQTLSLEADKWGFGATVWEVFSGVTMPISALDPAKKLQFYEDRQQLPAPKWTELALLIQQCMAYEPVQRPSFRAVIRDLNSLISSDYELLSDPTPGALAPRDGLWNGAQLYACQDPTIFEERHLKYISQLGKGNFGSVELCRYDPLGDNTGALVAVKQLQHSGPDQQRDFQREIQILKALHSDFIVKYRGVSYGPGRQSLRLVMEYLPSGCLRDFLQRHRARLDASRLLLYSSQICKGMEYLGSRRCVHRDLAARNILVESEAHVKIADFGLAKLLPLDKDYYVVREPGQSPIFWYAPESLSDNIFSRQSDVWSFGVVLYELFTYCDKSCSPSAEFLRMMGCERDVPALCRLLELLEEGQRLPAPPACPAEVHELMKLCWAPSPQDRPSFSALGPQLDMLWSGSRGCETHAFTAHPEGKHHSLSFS
Assay: Assay for CD23 expression on Ramos B-cells stimulated by IL-4 (Table IV: ability to inhibit JAK3 activity)
Format: cell-based
Conditions: tested under conditions described in Example 3 (so in the source)
In short: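 IL-4-induced CD23 surface expression on human Ramos B cells, detected by flow cytometry after 20–24 h stimulation (IL-4 final 50 units/mL). Compound or DMSO added 1 h beforehand at 37 °C; cells kept in RPMI with 5% serum.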

Row | IC50 | SMILES
1 | < 500 nM | O=c1[nH]c2cc(Nc3nc(Nc4ccc5c(c4)CCC(N4CCCC4)CC5)ncc3F)ccc2o1 (stereo not shown) [II-2, 5-(5-fluoro-2-(7-(pyrrolidin-1-yl)-6,7,8,9-tetrahydro-5H-benzo[7]annulen-2-ylamino)pyrimidin-4-ylamino)benzo[d]oxazol-2(3H)-one diformate salt]
2 | < 500 nM | COc1c(F)ccc(Nc2ncc(Cl)c(Nc3ccc4oc(=O)[nH]c4c3)n2)c1F [Compound I-7, 5-(5-chloro-2-(2,4-difluoro-3-methoxyphenylamino)pyrimidin-4-ylamino)benzo[d]oxazol-2(3H)-one trifluoroacetate salt]
3 | < 500 nM | Cc1cc(Nc2nc(Nc3cccc(S(N)(=O)=O)c3)ncc2F)cc2[nH]c(=O)oc12 [Compound I-171, 3-(5-fluoro-4-(7-methyl-2-oxo-2,3-dihydrobenzo[d]oxazol-5-ylamino)pyrimidin-2-ylamino)benzenesulfonamide trifluoroacetate salt]
4 | < 500 nM | Cc1cnc(Nc2cccc(C#N)c2F)nc1Nc1ccc2oc(=O)[nH]c2c1 [Compound I-72, 2-fluoro-3-(5-methyl-4-(2-oxo-2,3-dihydrobenzo[d]oxazol-5-ylamino)pyrimidin-2-ylamino)benzonitrile trifluoroacetate salt]
